Reference: patent publication US7544700B2, “Pharmaceutically active sulfonamide derivatives bearing both lipophilic and ionisable moieties as inhibitors of protein JunKinases” (Laboratoires Serono SA, priority 2000, dated 2009)
pIC50: −log10 of the molar value.

Tests used:
GST-JNK3 = GST-JNK3 (Homo sapiens, UniProt P53779); experiment: JNK3 in vitro assay (33P incorporation into c-jun, SPA); assay type: biochemical
Protocol: The phosphorylation of c-jun by JNK2 or JNK3 may be followed by monitoring the incorporation of ^33P into c-jun following the protocol below. The inhibitory activity of the compounds according to formula I, in respect of c-jun phosphorylation through JNK, is determined by calculating the phosphorylation activity of a JNK in the presence or absence of the test compounds according to formula I.
JNK3 and/or -2 assays are performed in 96 well NM plates: incubation of 0.5 μg of recombinant, pre-activated GST-JNK3 or GST-JNK2 with 1 μg of recombinant, biotinylated GST-c-Jun and 2 μM ^33γ-ATP (2 nCi/μl), in the presence or absence of compounds according to formula I and in a reaction volume of 50 μl containing 50 mM Tris-HCl, pH 8.0; 10 mM MgCl2; 1 mM Dithiothreitol, and 100 μM NaVO4. The incubation is performed for 120 min. at R.T and stopped upon addition of 200 μl of a solution containing 250 μg of Streptavidine-coated SPA beads (Amersham, Inc.)*, 5 mM EDTA, 0.1% Triton X-100 and 50 μM ATP, in phosphate saline buffer. After incubation for 60 minutes at RT, beads are sedimented by centrifugation at 1500×g for 5 minutes, resuspended in 200 μl of PBS containing 5 mM EDTA, 0.1% Triton X-100 and 50 μM ATP and the radioactivity measured in a scintillation β counter, following sedimentation of the beads as described above. By replacing biotinylated GST-c Jun with biotinylated GST-1ATF2 or biotinylated myelin basic protein, this assay may also be used to measure inhibition of pre-activated p38 and ERK MAP Kinases, respectively.

[1] = test system: IL-2 release by (PMA+Ionomycin)-stimulated Jurkat cells; experiment: IL-2 release assay (IL-2 ELISA); assay type: cell-based; conditions: Homo sapiens; PMA + Ionomycine stimulated Jurkat cells
Protocol: The Ability of the Compounds According to Formula I to Modulate the Inflammatory Response by Inhibiting the Release of IL-2 was Assessed Using the Following Protocol
JNK pathway activation triggers the production of inflammatory cytokines such as IL-2. JNK can be activated by external stimuli such as PMA and Ionomycine and IL-2 production can be measured via an IL-2 ELISA test. Comparative measurements with and without the compounds of the invention according to the following protocol measure the ability of the compounds to prevent to stress-mediated IL-2 release.
Jurkat cells, a human T cell leukemia cell line (American Type Culture Collection # TIB 152) were cultured in RPMI 1640 medium (Gibco, BRL) supplemented with 10% of […] fetal calf serum (FCS), Glutamine and Penstrep. The cell suspension in the medium is diluted to give 2.10^6 cells/mL. The cells were plated (2.10^5 cells/well) on a 96-well plate containing different concentrations of a compound according to formula I (final concentration of compounds, 10, 3, 1, 0.3, 0.1 μM). This mixture is incubated 30 minutes at 37° C. in a humidified CO2 atmosphere. Cells were then treated with 10 μl PMA (Phorbolmyristate-13 Acetate-12)+Ionomycine (0.1 μM and 1 μM final concentration) in all wells except negative control. In wells without compounds, 10 μl of RPMI 2% DMSO (=0.1% final) is added. Cells are incubated 24 hours at 37° C. and then the supernatant harvested (freeze at −20° C. if not used the same day) prior to performing IL-2 ELISA test on the supernatant.
IL-2 release into the medium by (PMA+Iononomycin)-stimulated Jurkat cells, in presence or absence of test compounds may be assayed by ELISA. Following the procedure described below.
Monoclonal anti-human IL-2 antibody (MAB602) (capture), biotinylated anti-human IL-2 antibody (BAF202) (detection) and recombinant human IL-2 (202-IL-010) (standard) from From R&D Systems are used. […]
• 1. […] Optical density is measured using a microtiter plate reader set to 450 nm with correction at 570 nm.

Sequence of GST-JNK3 (P53779 whole entry): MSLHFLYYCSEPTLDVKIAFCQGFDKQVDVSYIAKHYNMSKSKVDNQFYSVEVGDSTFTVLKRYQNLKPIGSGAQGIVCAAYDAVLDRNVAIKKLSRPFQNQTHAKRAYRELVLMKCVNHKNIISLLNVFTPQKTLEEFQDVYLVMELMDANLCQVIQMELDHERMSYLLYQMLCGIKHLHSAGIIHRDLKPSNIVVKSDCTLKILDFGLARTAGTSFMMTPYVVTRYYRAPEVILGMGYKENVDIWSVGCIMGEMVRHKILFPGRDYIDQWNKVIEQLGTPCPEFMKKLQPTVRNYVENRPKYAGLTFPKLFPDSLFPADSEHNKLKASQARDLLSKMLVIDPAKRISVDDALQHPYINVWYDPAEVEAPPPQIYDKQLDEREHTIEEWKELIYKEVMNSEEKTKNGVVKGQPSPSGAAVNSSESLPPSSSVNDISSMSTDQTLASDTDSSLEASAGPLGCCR

pIC50 (GST-JNK3): > 6.22
pIC50 [1]: > 6.10
Structure (SMILES): COc1cccc(C(=O)NCc2ccc(S(=O)(=O)N3CCC(NCc4ccc(C(F)(F)F)cc4)CC3)s2)c1 [Example 1, 3-Methoxy-N-{[5-({4-[(4-trifluoromethylbenzyl)amino]piperidin-1-yl}sulfonyl)thien-2-yl]methyl}benzamide]
